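Step 1: Grow cells in 96-well plates. Step 2: Expose to compound for 48 hours at 5 concentrations. Step 3: Interpolate endpoints linearly; if unreached, use highest concentration. TGI: total growth inhibition.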
Legend:
Assay in all cases: inhibition of tumour cell growth, NCI panel, 48 h
[1] = system: 786-0 renal
[2] = system: ACHN renal
[3] = system: COLO 205 colon
[4] = system: HOP-92 NSCLC
[5] = system: HT29 colon
[6] = system: LOX IMVI melanoma
[7] = system: MCF7 breast
[8] = system: MDA-N
[9] = system: SK-MEL-2 melanoma
[10] = system: SK-MEL-5 melanoma
[11] = system: UACC-62 melanoma

Row | Structure (SMILES) | TGI [1] | TGI [2] | TGI [3] | TGI [4] | TGI [5] | TGI [6] | TGI [7] | TGI [8] | TGI [9] | TGI [10] | TGI [11]
1 | Cc1cc(S(=O)(=O)Nc2nnc3cnc4ccccc4n23)c(S)cc1Cl | > 100 µM | > 100 µM | > 100 µM | > 85.9 µM | > 100 µM | > 100 µM | > 100 µM | > 100 µM | > 100 µM | > 85.9 µM | > 100 µM
2 | O=C(NC(=O)c1cc(-c2ccccc2)n[nH]1)c1ccccc1 | > 100 µM | > 100 µM | > 100 µM | > 100 µM | > 100 µM | > 100 µM | > 100 µM | > 100 µM | > 100 µM | > 100 µM | > 100 µM
3 | NCC(O)CNC(=O)c1ccc(-c2ccc(-c3ccc(C(=O)NCC(O)CN)cc3)o2)cc1 (configuration not stated) | 48.5 µM | > 100 µM | > 100 µM | 52.1 µM | > 100 µM | > 100 µM | > 100 µM | > 100 µM | > 100 µM | > 100 µM | > 100 µM
4 | C/C=C1\CN(C(=O)OC(C)(C)C)C1C(=O)OC(C)(C)C (configuration not stated) | > 100 µM | > 100 µM | > 100 µM | > 100 µM | > 100 µM | > 100 µM | > 100 µM | > 100 µM | > 100 µM | > 100 µM | > 100 µM
5 | CC(=O)Oc1c2c(c3n(c1=O)CCCC3)C(=O)N(c1ccccc1)C2=O | > 100 µM | > 100 µM | > 100 µM | > 100 µM | > 100 µM | > 100 µM | > 100 µM | > 100 µM | > 100 µM | > 100 µM | > 100 µM
6 | CCOC(=O)Nc1ccc2c(c1)c(CCCCCCc1nc3ccccc3c3ccc(NC(=O)OCC)cc13)nc1ccccc12 | 42.4 µM | > 100 µM | > 100 µM | 63 µM | > 100 µM | 42.5 µM | > 100 µM | > 100 µM | 71.2 µM | > 100 µM | > 100 µM
7 | CC(C)=CCC/C(C)=C/COc1c2ccoc2cc2oc(=O)ccc12 | > 100 µM | 83.8 µM | 32.4 µM | > 100 µM | 81.1 µM | 46.4 µM | 61.4 µM | > 100 µM | 38.3 µM | 28.6 µM | 38.3 µM
8 | Cc1ccc(-c2nc(N/N=C/c3ccc(O)cc3)c3ccccc3n2)cc1 | 71.9 µM | 35.7 µM | > 100 µM | > 100 µM | > 100 µM | 36.2 µM | 26.2 µM | 23.7 µM | 32.7 µM | 15.4 µM | 26.4 µM
9 | Cn1ncc2c(Cl)ncnc21 | > 100 µM | > 100 µM | > 100 µM | > 100 µM | > 100 µM | > 100 µM | > 100 µM | > 100 µM | > 100 µM | > 100 µM | > 100 µM
10 | CN(C)c1ccc(/C=C(\NC(=O)c2ccccc2)C2=NC(CCC(=O)O)C(=O)O2)cc1 (configuration not stated) | > 50 µM | > 50 µM | > 50 µM | > 50 µM | > 50 µM | > 50 µM | > 50 µM | > 50 µM | > 50 µM | > 50 µM | > 50 µM
11 | NC1=Nc2cc(Cl)ccc2Sc2nc3ccccc3n21 | > 100 µM | > 100 µM | > 100 µM | 71 µM | > 100 µM | > 100 µM | > 100 µM | > 100 µM | > 100 µM | > 100 µM | > 100 µM
12 | C=C1C(O)C[C@H](OC(C)=O)[C@]2(C)C1C(OC(C)=O)[C@]1(C(C)(C)O)CC(O)C(C)=C1[C@@H](OC(=O)c1ccccc1)C2OC(C)=O (some centres not stated) | > 10 µM | > 10 µM | > 10 µM | > 10 µM | > 10 µM | > 10 µM | > 10 µM | > 10 µM | > 10 µM | > 10 µM | > 10 µM
13 | CC(=O)Nc1ccc2[nH]c(C(=O)N3CC(CCl)c4c3cc([N+](=O)[O-])c3ccccc43)cc2c1 (configuration not stated) | > 100 µM | > 100 µM | > 100 µM | > 43.7 µM | > 100 µM | > 100 µM | > 100 µM | > 100 µM | > 69.5 µM | > 100 µM | > 31.6 µM
14 | O=c1oc2ccccc2cc1-c1cn2c(n1)sc1ccccc12 | > 100 µM | > 100 µM | > 100 µM | > 100 µM | 11.8 µM | > 100 µM | 77.4 µM | > 100 µM | > 100 µM | > 100 µM | > 100 µM
15 | O=C(CCC=C(S(=O)(=O)c1ccccc1)S(=O)(=O)c1ccccc1)c1ccccc1 | 11.8 µM | 20 µM | 19.8 µM | 30.6 µM | 17.5 µM | 10.3 µM | 17.1 µM | 14.8 µM | 9.7 µM | 19.8 µM | 19.7 µM
16 | CC(C)(C)c1cc(OCc2nn3c(Cc4ccccc4)nnc3s2)c(Cl)cc1OCc1nn2c(Cc3ccccc3)nnc2s1 | > 100 µM | > 100 µM | > 100 µM | 52.9 µM | > 100 µM | > 100 µM | > 100 µM | > 100 µM | > 100 µM | 26.6 µM | > 100 µM
17 | COc1cc2c(c(O)c1OC)CC1CCC(=O)N1C2c1cccc2ccccc12 (configuration not stated) | 94.5 µM | > 100 µM | 28.9 µM | 45.7 µM | 34.5 µM | 52.4 µM | > 100 µM | 31.7 µM | 34.9 µM | 26.2 µM | 30.9 µM

From PubChem BioAssay (NCI)
